What was measured:
Kinetic solubility assay = type: physicochemical; conditions: kinetic solubility, 50 mM PB (pH 7.4), shaken 24 hours at RT
Outline: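 Test compounds from 10 mM DMSO stock were diluted in 50 mM phosphate buffer, pH 7.4, and shaken for 24 h at RT. After PTFE filtration and centrifugation, filtrate concentration was quantified by UPLC-UV/HPLC-UV against a standard curve.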

wtKIT [1] = biological target: T1, wtKIT (Homo sapiens, UniProt P10721); test: Caliper biochemical assay, wtKIT; conditions: Table 6, read-out: KIT Biochemical IC50 avg
T1 construct: 1888289AM in the reaction mixtures
Outline: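 Enzyme (5.0 nM wtKIT), 1 μM FAM-labelled peptide, 400 μM ATP and 10 mM MnCl2 in HEPES pH 7.5 with 1% DMSO, incubated 3 h at 25° C. EDTA quench; substrate and phosphoproduct separated by microfluidic electrophoresis and quantified by fluorescence.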

CSF-1R = biological target: T2, CSF-1R (Homo sapiens, UniProt P07333); test: Caliper biochemical assay, CSF-1R; conditions: Table 6
T2 construct: purchased Invitrogen PV3249 (lot 662393N)
Procedure: (§1) Enzyme, substrate, and cofactors (ATP and Mn^2+) are combined in a well of a microtiter plate and incubated for 3 hours at 25° C. At the end of the incubation, the reaction is quenched by the addition of an EDTA-containing buffer. Substrate and product are separated electrophoretically using the microfluidic-based LabChip 3000 Drug Discovery System from Caliper Life Sciences* and quantitated by fluorescence intensity.
(§2) The substrate used in the CSF-1R and PDGFRα assay is FAM-[…]-CONH2 (FAM is carboxyfluorescein). Peptide should be >95% purity. The substrate for the KIT assay is FAM-[…]-NH2.
(§3) • 1. To a well of a 384-well plate add 5 μL of 2× enzyme buffer (or control) • 2. Add 100 nL of 100× compound. • 3. Add 5 μL of 2× substrate buffer. • 4. Incubate plate at 25° C. for 3 hours. • 5. Add 10 uL of […]. • 6. Read plate LabChip 3000 Drug Discovery System
(§4) • 3 hours at 25° C. where 100% Inhibitor: No enzyme.

wtKIT [2] = biological target: T1, wtKIT; test: HTRF biochemical assay, wtKIT (phosphorylation of a peptide substrate); conditions: Table 4
Outline: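 wtKIT (5.0 nM) phosphorylating 1 µM FAM-labelled peptide with 400 µM ATP and 10 mM MnCl2 in 100 mM HEPES pH 7.5, 1% DMSO, 3 h at 25 °C. EDTA quench; phosphopeptide detected with anti-phosphotyrosine antibody by HTRF. Enzyme titrated for 10-20% substrate conversion.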

PDGFRα = biological target: T3, PDGFRα (Homo sapiens, UniProt P16234); test: Caliper biochemical assay, PDGFRα; conditions: Table 6
T3 construct: purchased Millipore 14-467 (lot 26321_ACTI)
Procedure: as §1, §2, §3, §4

T3 sequence (P16234 24-1089): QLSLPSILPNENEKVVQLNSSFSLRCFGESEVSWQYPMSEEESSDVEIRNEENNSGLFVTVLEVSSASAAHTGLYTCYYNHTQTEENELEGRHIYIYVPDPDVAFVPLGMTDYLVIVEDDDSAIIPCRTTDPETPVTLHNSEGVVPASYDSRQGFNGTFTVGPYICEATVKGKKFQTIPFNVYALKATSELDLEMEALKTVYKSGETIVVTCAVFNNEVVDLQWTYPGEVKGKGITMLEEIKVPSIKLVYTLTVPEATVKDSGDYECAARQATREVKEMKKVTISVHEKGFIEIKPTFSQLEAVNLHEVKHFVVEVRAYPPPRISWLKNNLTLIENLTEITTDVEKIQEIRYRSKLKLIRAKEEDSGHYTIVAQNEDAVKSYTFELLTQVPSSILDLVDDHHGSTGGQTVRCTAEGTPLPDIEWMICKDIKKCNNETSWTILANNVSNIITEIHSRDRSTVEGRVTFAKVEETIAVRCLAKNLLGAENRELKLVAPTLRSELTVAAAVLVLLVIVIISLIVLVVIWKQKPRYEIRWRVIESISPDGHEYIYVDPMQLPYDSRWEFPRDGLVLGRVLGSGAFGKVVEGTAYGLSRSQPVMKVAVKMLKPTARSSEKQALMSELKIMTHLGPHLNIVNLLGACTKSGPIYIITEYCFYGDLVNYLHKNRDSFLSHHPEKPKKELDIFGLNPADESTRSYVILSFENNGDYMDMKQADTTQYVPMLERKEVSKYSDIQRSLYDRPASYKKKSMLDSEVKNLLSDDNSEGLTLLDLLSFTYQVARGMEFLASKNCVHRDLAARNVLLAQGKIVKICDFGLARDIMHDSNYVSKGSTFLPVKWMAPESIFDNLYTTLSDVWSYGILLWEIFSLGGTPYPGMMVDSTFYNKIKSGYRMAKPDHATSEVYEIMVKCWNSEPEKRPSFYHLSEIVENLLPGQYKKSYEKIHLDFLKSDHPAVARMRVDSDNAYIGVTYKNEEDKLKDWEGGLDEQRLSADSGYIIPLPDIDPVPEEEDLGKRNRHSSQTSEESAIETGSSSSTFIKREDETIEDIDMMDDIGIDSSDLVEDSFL
T2 sequence (P07333 20-972): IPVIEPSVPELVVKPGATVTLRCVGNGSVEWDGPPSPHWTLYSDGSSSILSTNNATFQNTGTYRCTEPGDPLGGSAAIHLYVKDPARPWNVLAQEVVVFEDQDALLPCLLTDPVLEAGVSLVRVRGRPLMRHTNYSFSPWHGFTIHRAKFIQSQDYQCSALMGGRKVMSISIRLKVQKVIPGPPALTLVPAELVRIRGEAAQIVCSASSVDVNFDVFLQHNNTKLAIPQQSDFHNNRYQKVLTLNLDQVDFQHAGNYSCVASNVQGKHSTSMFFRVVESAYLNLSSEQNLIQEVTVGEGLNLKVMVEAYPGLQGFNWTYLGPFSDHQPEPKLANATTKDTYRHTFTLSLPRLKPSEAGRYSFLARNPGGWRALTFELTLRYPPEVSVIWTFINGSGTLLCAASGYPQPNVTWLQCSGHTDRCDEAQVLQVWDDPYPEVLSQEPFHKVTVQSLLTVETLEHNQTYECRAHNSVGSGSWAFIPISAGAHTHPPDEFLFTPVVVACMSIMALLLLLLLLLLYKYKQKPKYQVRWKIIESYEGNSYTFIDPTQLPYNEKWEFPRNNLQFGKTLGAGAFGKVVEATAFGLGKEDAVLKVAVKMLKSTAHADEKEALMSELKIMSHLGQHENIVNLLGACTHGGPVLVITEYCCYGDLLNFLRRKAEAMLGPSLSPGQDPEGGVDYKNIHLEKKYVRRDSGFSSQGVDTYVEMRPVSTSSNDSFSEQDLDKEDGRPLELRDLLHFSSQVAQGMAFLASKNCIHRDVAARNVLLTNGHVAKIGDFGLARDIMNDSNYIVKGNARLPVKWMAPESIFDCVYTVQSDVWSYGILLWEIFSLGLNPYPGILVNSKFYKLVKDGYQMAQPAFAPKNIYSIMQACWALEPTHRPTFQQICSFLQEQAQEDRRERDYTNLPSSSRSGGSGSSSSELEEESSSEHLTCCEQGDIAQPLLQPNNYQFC
T1 sequence (P10721 26-976): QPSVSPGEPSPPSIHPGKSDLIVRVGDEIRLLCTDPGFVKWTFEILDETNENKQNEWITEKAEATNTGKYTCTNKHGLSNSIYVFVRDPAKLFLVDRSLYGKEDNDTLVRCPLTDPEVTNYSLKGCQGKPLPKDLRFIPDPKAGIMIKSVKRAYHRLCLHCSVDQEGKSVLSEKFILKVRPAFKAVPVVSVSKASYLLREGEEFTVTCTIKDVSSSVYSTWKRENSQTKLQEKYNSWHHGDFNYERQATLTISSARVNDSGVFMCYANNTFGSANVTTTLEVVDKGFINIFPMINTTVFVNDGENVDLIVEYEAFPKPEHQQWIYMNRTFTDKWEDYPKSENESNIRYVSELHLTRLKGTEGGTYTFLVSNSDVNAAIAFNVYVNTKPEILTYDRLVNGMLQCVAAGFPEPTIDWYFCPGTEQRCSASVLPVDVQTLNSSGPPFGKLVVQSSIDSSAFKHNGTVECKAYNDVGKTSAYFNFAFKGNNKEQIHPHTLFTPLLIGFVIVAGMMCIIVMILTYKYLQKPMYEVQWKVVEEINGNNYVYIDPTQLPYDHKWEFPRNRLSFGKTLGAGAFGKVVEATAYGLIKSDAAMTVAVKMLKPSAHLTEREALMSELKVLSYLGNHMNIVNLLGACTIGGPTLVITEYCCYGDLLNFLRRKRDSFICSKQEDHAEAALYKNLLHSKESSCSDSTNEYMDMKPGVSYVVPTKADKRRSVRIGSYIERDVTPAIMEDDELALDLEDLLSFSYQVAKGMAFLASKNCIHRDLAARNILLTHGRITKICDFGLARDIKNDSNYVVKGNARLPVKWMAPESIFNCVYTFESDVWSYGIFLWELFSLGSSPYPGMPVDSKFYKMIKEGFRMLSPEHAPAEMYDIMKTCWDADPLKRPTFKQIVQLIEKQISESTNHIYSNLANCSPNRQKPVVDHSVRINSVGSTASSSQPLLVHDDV

IC50 (wtKIT [1]) [nM]	IC50 (CSF-1R) [nM]	IC50 (wtKIT [2]) [nM]	IC50 (PDGFRα) [nM]	SMILES	Solubility (μM) (Kinetic solubility assay)
≤ 50	500 to 5000	50 to 500	5000 to 30000	COC(=O)CS(=O)(=O)N1CC(c2nc(-c3ccc(C)c(NC(=O)c4cnc5ccccn45)c3)no2)C1 [Compound I-236]	*** (a solubility greater than 2 μM and less than or equal to 10 μM)
≤ 50	≤ 50	50 to 500	50 to 500	Cc1ccc(-c2noc([C@@H]3CCC(C)(C)N3)n2)cc1NC(=O)c1cnc2ccccn12 (racemic) [Compound I-232]	** (a solubility greater than 10 μM and less than or equal to 50 μM)
≤ 50	≤ 50	–	50 to 500	Cc1ccc(-c2noc([C@H]3CCN3C3CCC3)n2)cc1NC(=O)c1cnc2ccccn12 [Compound I-193]	**** (a solubility less than or equal to 2 μM)
≤ 50	50 to 500	–	50 to 500	Cc1ccc(-c2noc([C@@H]3CCN3C3CC3)n2)cc1NC(=O)c1cnc2ccccn12 (racemic) [Compound I-177]	**** (a solubility less than or equal to 2 μM)
50 to 500	≤ 50	–	50 to 500	Cc1ccc(-c2noc(C3CCCCN3S(C)(=O)=O)n2)cc1NC(=O)c1cnc2ccccn12 (racemic) [Compound I-174]	*** (a solubility greater than 2 μM and less than or equal to 10 μM)
≤ 50	≤ 50	–	50 to 500	Cc1ccc(-c2noc([C@H]3C[C@@H]3F)n2)cc1NC(=O)c1cnc2ccc(N3CCC3)cn12 [Compound I-291]	*** (a solubility greater than 2 μM and less than or equal to 10 μM)
≤ 50	50 to 500	–	500 to 5000	COC(=O)CS(=O)(=O)N1CCC1c1nc(-c2ccc(C)c(NC(=O)c3cnc4ccccn34)c2)no1 (stereo not drawn) [Compound I-197]	*** (a solubility greater than 2 μM and less than or equal to 10 μM)
≤ 50	≤ 50	50 to 500	50 to 500	CCS(=O)(=O)N1CC[C@@H]1c1nc(-c2ccc(C)c(NC(=O)c3cnc4ccccn34)c2)no1 [Compound I-234]	** (a solubility greater than 10 μM and less than or equal to 50 μM)
50 to 500	50 to 500	–	500 to 5000	Cc1ccc(-c2noc([C@@H]3CCN3S(=O)(=O)c3ccccc3)n2)cc1NC(=O)c1cnc2ccccn12 [Compound I-186]	*** (a solubility greater than 2 μM and less than or equal to 10 μM)
≤ 50	50 to 500	–	500 to 5000	CCN1CC[C@H]1c1nc(-c2ccc(C)c(NC(=O)c3cnc4ccccn34)c2)no1 (racemic) [Compound I-180]	* (a solubility greater than 50 μM)
≤ 50	50 to 500	–	5000 to 30000	COC(=O)N1CC(c2nc(-c3ccc(C)c(NC(=O)c4cnc5cc(C(F)F)ccn45)c3)no2)C1 [Compound I-135]	**** (a solubility less than or equal to 2 μM)
≤ 50	≤ 50	–	50 to 500	Cc1ccc(-c2noc([C@H]3CCN3C(C)C)n2)cc1NC(=O)c1cnc2ccccn12 [Compound I-194]	*** (a solubility greater than 2 μM and less than or equal to 10 μM)
50 to 500	50 to 500	–	50 to 500	Cc1ccc(-c2noc([C@@H]3CCN3S(=O)(=O)C3CCOCC3)n2)cc1NC(=O)c1cnc2ccccn12 [Compound I-187]	** (a solubility greater than 10 μM and less than or equal to 50 μM)
50 to 500	500 to 5000	–	5000 to 30000	COCCN1CC[C@H]1c1nc(-c2ccc(C)c(NC(=O)c3cnc4ccccn34)c2)no1 (racemic) [Compound I-179]	* (a solubility greater than 50 μM)
≤ 50	≤ 50	–	≤ 50	Cc1ccc(Nc2ccn3c(C(=O)Nc4cc(-c5noc([C@H]6C[C@@H]6F)n5)ccc4C)cnc3c2)cc1 [Compound I-302]	**** (a solubility less than or equal to 2 μM)
≤ 50	≤ 50	–	50 to 500	Cc1ccc(-c2noc([C@H]3CCN3S(=O)(=O)C3CCOCC3)n2)cc1NC(=O)c1cnc2ccccn12 [Compound I-196]	** (a solubility greater than 10 μM and less than or equal to 50 μM)
≤ 50	50 to 500	–	500 to 5000	O=C(Nc1cc(-c2noc([C@H]3CC(F)(F)CN3)n2)ccc1Cl)c1cnc2ccccn12 [Compound I-192]	**** (a solubility less than or equal to 2 μM)
≤ 50	50 to 500	–	50 to 500	COC(=O)CS(=O)(=O)N1CC[C@H]1c1nc(-c2ccc(C)c(NC(=O)c3cnc4ccccn34)c2)no1 [Compound I-188]	*** (a solubility greater than 2 μM and less than or equal to 10 μM)
≤ 50	50 to 500	–	500 to 5000	Cc1ccc(-c2noc([C@@H]3CCC(F)(F)CN3)n2)cc1NC(=O)c1cnc2ccccn12 (racemic) [Compound I-198]	*** (a solubility greater than 2 μM and less than or equal to 10 μM)
50 to 500	≤ 50	–	≤ 50	Cc1ccc(-c2noc(C34CCC(CC3)CC4)n2)cc1NC(=O)c1cnc2ccccn12 [Compound I-311]	**** (a solubility less than or equal to 2 μM)
≤ 50	500 to 5000	–	5000 to 30000	Cc1nc(-c2ccc(C)c(NC(=O)c3cnc4cc(COCC(F)(F)F)ccn34)c2)no1 [Compound I-133]	**** (a solubility less than or equal to 2 μM)
≤ 50	≤ 50	–	50 to 500	Cc1ccc(-c2noc([C@@H]3CCN3CC(F)(F)F)n2)cc1NC(=O)c1cnc2ccccn12 (racemic) [Compound I-178]	**** (a solubility less than or equal to 2 μM)
50 to 500	50 to 500	–	5000 to 30000	Cc1ccc(-c2noc(CC(O)C(F)(F)F)n2)cc1NC(=O)c1cnc2ccccn12 (racemic) [Compound I-183]	**** (a solubility less than or equal to 2 μM)
≤ 50	≤ 50	–	500 to 5000	Cc1ccc(-c2noc([C@H](C)NS(=O)(=O)c3cnn(C)c3)n2)cc1NC(=O)c1cnc2ccccn12 (racemic) [Compound I-181]	* (a solubility greater than 50 μM)

From US20240254119A1 (THIRD HARMONIC BIO, INC., priority 2022, published 2024)
